Laboratory results published in paper PMC3964211, “Pharmacokinetic modeling optimizes inhibition of the ‘undruggable’ EWS-FLI1 transcription factor in Ewing Sarcoma” (Oncotarget, 2013).

Experiment: Pharmacokinetics in SD rats, single oral gavage
Type: in vivo, Sprague-Dawly (SD) rats
Details: analyte (S)-YK-4-279 in plasma
Method: To optimize dosing in animals, we determined the pharmacokinetics of YK-4-279 and its single enantiomers in Sprague-Dawly (SD) rats. Three rats of each gender were assigned to nine dose groups. Animals in Groups 1 through 3 received a single intravenous (IV) injection of racemic mixture, (S)-YK-4-279, or (R)-YK-4-279 at a dose of 25 mg/kg. Animals in Groups 4 through 9 received a single oral gavage administration of racemic mixture, (S)-YK-4-279, or (R)-YK-4-279 at a dosage level of 25 or 50 mg/kg. […] However, given that approximately 50 percent of the racemic mixture is (S)-YK-4-279 and the clearance […] the dose, the IV clearance of (S)-YK-4-279 is considered to be similar whether a racemic mixture or only (S)-YK-4-279 is administered. Systemic exposure to (S)-YK-4-279 was evaluated using Cmax and AUC values. Cmax and AUC8 values were similar between males and females for a given dose group. With an expected enantiomer ratio of 1:1 in the racemic dose, Group 2 animals would have received a 2-fold higher dose of (S)-YK-4-279 than Group 1 animals. […] Absolute bioavailability of (S)-YK-4-279 following gavage administration, using cremophor/ethanol as an excipient, in SD rats was only 2–6% (Table 2).
Nine SD rats of each gender were assigned to nine dose groups. Groups 1 through 3 received a single IV injection of racemic mixture, (S)-YK-4-279, or (R)-YK-4-279 at a dose of 25 mg/kg. Groups 4 through 9 received a single gavage administration of racemic mixture, (S)-YK-4-279, or (R)-YK-4-279 at a dosage level of 25 or 50 mg/kg. Blood samples were collected from one animal per group per time point at target time points of pre-dose, 5, 15, 30 and 60 minutes, and 2, 4, 8 and 12 hours following dosing. Plasma was obtained from the samples and analyzed for (S) and (R)-YK-4-279 concentrations.
The plasma and tumor sample analysis was performed using calibration standards and Quality Control (QC) samples prepared in control rat or mouse plasma and tumor tissues. Plasma and tumor calibration standards were prepared from stock solutions of YK-4-279. The calibration standards, blanks, QC samples, and study samples were then processed by solid-liquid extraction (SLE) followed by analysis using liquid chromatography with mass spectrometry (LC-MS). The LC-MS systems used for the analysis of YK-4-279 was composed of Shimadzo prominence pump and auto-sampler (Kyoto, Japan), a Sciex API 5000 MS (Toronto, Ontario), with turbo ion spary in the positive ion mode. The samples for the analysis of total YK-4-279 were injected into a 50 × 2 mm Gemini- NX, 5 ¼m column (Phenomenex, Torrance, CA). The samples for the analysis of the specific enantiomers of YK-4-279 were injected into a 150 × 2 mm Lux Cellulose-2, 3 ¼m Phenomenex column. The transitions monitored were 366 amu to 135 amu for YK-4-279 and 369 amu to 138 amu for the YK-4-279-d3 internal standard. YK-4-279 concentrations were calculated using peak area response ratios and a regression equation constructed from the concentrations and peak area response ratios of the calibration standards. The lower limit of quantitation was 5.0 ng/mL in plasma and […] in tumor tissue. The concentration-time profiles were evaluated by compartmental modeling and non-compartmental analysis using WinNonlin (Pharsight Corporation, Mountain View, CA). The PK parameters obtained from the compartmental modeling were used in simulations to identify optimal dose level and dosing schedule for maintaining plasma concentration of (S)-YK-4-279 above 3 ¼M.

[1] = female (n=9), oral gavage 25 mg/kg
[2] = female (n=9), oral gavage 50 mg/kg
[3] = male (n=9), oral gavage 25 mg/kg
[4] = male (n=9), oral gavage 50 mg/kg

Row | Compound | AUClast [1] | AUC∞ [1] | Absolute Bioavailability [1] | Apparent Clearance [1] | Observed Cmax [1] | Observed Tmax [1] | Terminal Elimination Half-Life [1] | AUClast [2] | AUC∞ [2] | Absolute Bioavailability [2] | Apparent Clearance [2] | Observed Cmax [2] | Observed Tmax [2] | Terminal Elimination Half-Life [2] | AUClast [3] | AUC∞ [3] | Absolute Bioavailability [3] | Apparent Clearance [3] | Observed Cmax [3] | Observed Tmax [3] | also measured
1 | COc1ccc(C(=O)CC2(O)C(=O)Nc3c(Cl)ccc(Cl)c32)cc1 (centres unmarked) [YK-4-279] | 1.07 hr*¼M | 1.31 hr*¼M | 5.06% | 52,200 mL/hr/kg | 0.513 ¼M | 30 min | 1.56 h | 3.09 hr*¼M | 3.14 hr*¼M | 6.07% | 43,400 mL/hr/kg | 0.647 ¼M | 30 min | 1.97 h | 0.563 hr*¼M | 0.754 hr*¼M | 2.83% | 90,300 mL/hr/kg | 0.142 ¼M | 60 min | Terminal Elimination Half-Life [3]: 3.84 h; AUClast [4]: 1.04 hr*¼M; AUC∞ [4]: 1.18 hr*¼M; Absolute Bioavailability [4]: 2.21%; Apparent Clearance [4]: 116,000 mL/hr/kg; Observed Cmax [4]: 0.241 ¼M; Observed Tmax [4]: 120 min; Terminal Elimination Half-Life [4]: 4.23 h
2 | COc1ccc(C(=O)C[C@]2(O)C(=O)Nc3c(Cl)ccc(Cl)c32)cc1 [(R)-YK-4-279] | BLOQ | BLOQ | BLOQ | BLOQ | BLOQ | BLOQ | BLOQ | BLOQ | BLOQ | BLOQ | BLOQ | BLOQ | BLOQ | BLOQ | BLOQ | BLOQ | BLOQ | BLOQ | BLOQ1 | BLOQ | Terminal Elimination Half-Life [3]: BLOQ; AUClast [4]: BLOQ; AUC∞ [4]: BLOQ; Absolute Bioavailability [4]: BLOQ; Apparent Clearance [4]: BLOQ; Observed Cmax [4]: BLOQ; Observed Tmax [4]: BLOQ; Terminal Elimination Half-Life [4]: BLOQ
